From PubChem BioAssay (NCI)
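96-well plates; 48 h exposure; 5 concentrations. Endpoints by linear interpolation between flanking doses. Not reached: highest tested concentration assigned. Here, GI50 denotes the concentration required for 50% inhibition of growth. Definition used: TGI = concentration required for complete inhibition of growth.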

How the values were obtained:
Assay in all cases: inhibition of tumour cell growth, NCI panel, 48 h
NCI/ADR-RES ovarian = tested on: NCI/ADR-RES ovarian
786-0 renal = tested on: 786-0 renal
HOP-62 NSCLC = tested on: HOP-62 NSCLC
NCI-H23 lung = tested on: NCI-H23 lung
A549 NSCLC = tested on: A549 NSCLC
HCT-15 colon = tested on: HCT-15 colon
MOLT-4 leukemia = tested on: MOLT-4 leukemia
KM12 colon = tested on: KM12 colon
CCRF-CEM leukemia = tested on: CCRF-CEM leukemia
UACC-257 melanoma = tested on: UACC-257 melanoma
SR leukemia = tested on: SR leukemia
K-562 leukemia = tested on: K-562 leukemia
SW-620 colon = tested on: SW-620 colon
HCC-2998 colon = tested on: HCC-2998 colon
LOX IMVI melanoma = tested on: LOX IMVI melanoma
CAKI-1 renal = tested on: CAKI-1 renal
HCT-116 colon = tested on: HCT-116 colon
SF-539 CNS = tested on: SF-539 CNS
OVCAR-8 ovarian = tested on: OVCAR-8 ovarian
TK-10 renal = tested on: TK-10 renal
SK-MEL-5 melanoma = tested on: SK-MEL-5 melanoma
RXF 393 renal = tested on: RXF 393 renal
SK-MEL-2 melanoma = tested on: SK-MEL-2 melanoma
MDA-MB-231 breast = tested on: MDA-MB-231 breast
UO-31 renal = tested on: UO-31 renal
M14 melanoma = tested on: M14 melanoma
DU-145 prostate = tested on: DU-145 prostate
SF-295 CNS = tested on: SF-295 CNS
T-47D breast = tested on: T-47D breast
ACHN renal = tested on: ACHN renal
EKVX NSCLC = tested on: EKVX NSCLC
SF-268 CNS = tested on: SF-268 CNS
U251 CNS = tested on: U251 CNS
HOP-92 NSCLC = tested on: HOP-92 NSCLC
SK-OV-3 ovarian = tested on: SK-OV-3 ovarian
OVCAR-5 ovarian = tested on: OVCAR-5 ovarian
A498 renal = tested on: A498 renal
MALME-3M melanoma = tested on: MALME-3M melanoma
OVCAR-4 ovarian = tested on: OVCAR-4 ovarian
MCF7 breast = tested on: MCF7 breast
NCI-H460 lung = tested on: NCI-H460 lung
OVCAR-3 ovarian = tested on: OVCAR-3 ovarian
COLO 205 colon = tested on: COLO 205 colon
RPMI-8226 leukemia = tested on: RPMI-8226 leukemia
BT-549 breast = tested on: BT-549 breast
SK-MEL-28 melanoma = tested on: SK-MEL-28 melanoma
HL-60(TB) leukemia = tested on: HL-60(TB) leukemia
NCI-H226 lung = tested on: NCI-H226 lung
HS 578T breast = tested on: HS 578T breast
SNB-19 CNS = tested on: SNB-19 CNS
MDA-MB-435 = tested on: MDA-MB-435
NCI-H522 lung = tested on: NCI-H522 lung
HT29 colon = tested on: HT29 colon
UACC-62 melanoma = tested on: UACC-62 melanoma
SN12C renal = tested on: SN12C renal
PC-3 prostate = tested on: PC-3 prostate
SNB-75 CNS = tested on: SNB-75 CNS
IGROV1 ovarian = tested on: IGROV1 ovarian

`CN(C)C(=O)c1cc2cnc(Nc3ccc(-c4csc5c(=S)cc(N6CCOCC6)oc45)cc3)nc2n1C1CCCC1` was tested, and the GI50 (NCI/ADR-RES ovarian) was 1.02 µM, the TGI (NCI/ADR-RES ovarian) was over 50 µM and the GI50 (786-0 renal) was 0.63 µM. It also gave a TGI (786-0 renal) of over 50 µM, a GI50 (HOP-62 NSCLC) of 0.694 µM and a TGI (HOP-62 NSCLC) of over 50 µM. The GI50 (NCI-H23 lung) was 0.699 µM, the TGI (NCI-H23 lung) was over 19.5 µM and the GI50 (A549 NSCLC) was 0.823 µM. It also gave a TGI (A549 NSCLC) of 5.15 µM, a GI50 (HCT-15 colon) of 0.344 µM and a TGI (HCT-15 colon) of over 50 µM. It also gave a GI50 (MOLT-4 leukemia) of 0.244 µM, a TGI (MOLT-4 leukemia) of over 50 µM and a GI50 (KM12 colon) of 0.18 µM. It also gave a TGI (KM12 colon) of over 50 µM, a GI50 (CCRF-CEM leukemia) of 0.274 µM and a TGI (CCRF-CEM leukemia) of over 9.84 µM. The GI50 (UACC-257 melanoma) was 1.24 µM, the TGI (UACC-257 melanoma) was over 14.7 µM and the GI50 (SR leukemia) was 0.145 µM. The TGI (SR leukemia) was over 50 µM, the GI50 (K-562 leukemia) was 0.939 µM and the TGI (K-562 leukemia) was over 50 µM. The GI50 (SW-620 colon) was 0.604 µM, the TGI (SW-620 colon) was over 50 µM and the GI50 (HCC-2998 colon) was 0.932 µM. It also gave a TGI (HCC-2998 colon) of over 50 µM, a GI50 (LOX IMVI melanoma) of 0.355 µM and a TGI (LOX IMVI melanoma) of 2.54 µM. It also gave a GI50 (CAKI-1 renal) of 0.368 µM, a TGI (CAKI-1 renal) of over 13.3 µM and a GI50 (HCT-116 colon) of 0.242 µM. For the same compound, the TGI (HCT-116 colon) was over 50 µM, the GI50 (SF-539 CNS) was 0.517 µM and the TGI (SF-539 CNS) was 2.03 µM. It also gave a GI50 (OVCAR-8 ovarian) of 0.744 µM, a TGI (OVCAR-8 ovarian) of over 50 µM and a GI50 (TK-10 renal) of 0.987 µM. It also gave a TGI (TK-10 renal) of over 50 µM, a GI50 (SK-MEL-5 melanoma) of 0.715 µM and a TGI (SK-MEL-5 melanoma) of 2.43 µM. The GI50 (RXF 393 renal) was 0.139 µM, the TGI (RXF 393 renal) was 0.495 µM and the GI50 (SK-MEL-2 melanoma) was 0.971 µM. For the same compound, the TGI (SK-MEL-2 melanoma) was 2.84 µM, the GI50 (MDA-MB-231 breast) was 0.249 µM and the TGI (MDA-MB-231 breast) was over 50 µM. For the same compound, the GI50 (UO-31 renal) was 0.227 µM, the TGI (UO-31 renal) was 1.54 µM and the GI50 (M14 melanoma) was 0.838 µM. The TGI (M14 melanoma) was over 50 µM, the GI50 (DU-145 prostate) was 0.774 µM and the TGI (DU-145 prostate) was over 50 µM. The GI50 (SF-295 CNS) was 0.672 µM, the TGI (SF-295 CNS) was over 13.5 µM and the GI50 (T-47D breast) was 0.198 µM. The TGI (T-47D breast) was over 50 µM, the GI50 (ACHN renal) was 0.377 µM and the TGI (ACHN renal) was over 50 µM. The GI50 (EKVX NSCLC) was 0.792 µM, the TGI (EKVX NSCLC) was over 13.7 µM and the GI50 (SF-268 CNS) was 0.693 µM. It also gave a TGI (SF-268 CNS) of over 50 µM, a GI50 (U251 CNS) of 0.481 µM and a TGI (U251 CNS) of over 50 µM. The GI50 (HOP-92 NSCLC) was 0.115 µM, the GI50 (SK-OV-3 ovarian) was 2.28 µM and the TGI (SK-OV-3 ovarian) was over 50 µM. The GI50 (OVCAR-5 ovarian) was 0.485 µM, the TGI (OVCAR-5 ovarian) was over 50 µM and the GI50 (A498 renal) was 0.103 µM. It also gave a TGI (A498 renal) of 1.12 µM, a GI50 (MALME-3M melanoma) of 0.778 µM and a TGI (MALME-3M melanoma) of 31.1 µM. It also gave a GI50 (OVCAR-4 ovarian) of 1.03 µM, a TGI (OVCAR-4 ovarian) of over 50 µM and a GI50 (MCF7 breast) of 0.235 µM. The TGI (MCF7 breast) was 2.44 µM, the GI50 (NCI-H460 lung) was 0.585 µM and the TGI (NCI-H460 lung) was over 50 µM. The GI50 (OVCAR-3 ovarian) was 0.91 µM, the TGI (OVCAR-3 ovarian) was over 50 µM and the GI50 (COLO 205 colon) was 0.214 µM. For the same compound, the GI50 (RPMI-8226 leukemia) was 0.252 µM, the TGI (RPMI-8226 leukemia) was 1.45 µM and the GI50 (BT-549 breast) was 0.698 µM. The TGI (BT-549 breast) was 3.83 µM, the GI50 (SK-MEL-28 melanoma) was 0.752 µM and the TGI (SK-MEL-28 melanoma) was over 50 µM. The GI50 (HL-60(TB) leukemia) was 0.264 µM, the TGI (HL-60(TB) leukemia) was 1.97 µM and the GI50 (NCI-H226 lung) was 0.405 µM. The TGI (NCI-H226 lung) was over 11.9 µM, the GI50 (HS 578T breast) was 0.469 µM and the TGI (HS 578T breast) was 3.98 µM. It also gave a GI50 (SNB-19 CNS) of 0.498 µM, a TGI (SNB-19 CNS) of over 34.5 µM and a GI50 (MDA-MB-435) of 0.687 µM. It also gave a TGI (MDA-MB-435) of over 50 µM, a GI50 (NCI-H522 lung) of 1.3 µM and a TGI (NCI-H522 lung) of over 50 µM. It also gave a GI50 (HT29 colon) of 0.515 µM, a TGI (HT29 colon) of over 50 µM and a GI50 (UACC-62 melanoma) of 0.234 µM. For the same compound, the TGI (UACC-62 melanoma) was 1.72 µM, the GI50 (SN12C renal) was 0.33 µM and the TGI (SN12C renal) was over 50 µM. For the same compound, the GI50 (PC-3 prostate) was 0.312 µM, the TGI (PC-3 prostate) was over 10.8 µM and the GI50 (SNB-75 CNS) was 0.314 µM. It also gave a TGI (SNB-75 CNS) of 2.04 µM, a GI50 (IGROV1 ovarian) of 0.509 µM and a TGI (IGROV1 ovarian) of over 50 µM.
